From patent US9896441B2 (Lycera Corporation, priority 2014, dated 2018) come the findings set out here.

One assay has as its target T1, Gal4-RORγ-LBD (Homo sapiens, UniProt P51449).
T1 construct: expressed in transfected cells
T1 sequence (P51449 269-508 limits assumed): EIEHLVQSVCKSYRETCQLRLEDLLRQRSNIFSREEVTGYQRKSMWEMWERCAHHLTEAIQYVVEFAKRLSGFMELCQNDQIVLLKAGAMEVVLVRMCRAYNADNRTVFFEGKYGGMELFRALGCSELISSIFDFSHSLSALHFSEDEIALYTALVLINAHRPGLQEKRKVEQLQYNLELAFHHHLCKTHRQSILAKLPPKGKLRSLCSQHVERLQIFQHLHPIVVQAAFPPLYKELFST
Briefly: Gal4-RORγ Luciferase Reporter Assay in HEK-293T Cells. In kind it is cell-based. As to conditions: HEK-293 cells, luciferase reporter, in presence of ursolic acid; for Gal4-RORγ Assay Max Response: maximum response. In outline: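 Max Response was taken as the upper plateau of a 4-parameter logistic fit of luciferase signal, normalized to 100 for wells without ursolic acid or compound. Transiently Gal4-RORγ-LBD/Gal4-luc transfected HEK-293 cells carrying […] ursolic acid were incubated with test compounds (0.2% DMSO) overnight at 37 °C and read with One-Glo.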

In another assay the target is T2, RORγ-LBD (Homo sapiens, UniProt P51449).
T2 construct: made in house; host or cells: SF9 cells (baculovirus); used as diluted lysate
T2 sequence (P51449 269-508 limits assumed): T1 sequence (P51449 269-508 limits assumed)
The experiment in a line: RORγ-Ligand Binding Domain (LBD) TR-FRET Assay.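 For TR-FRET Assay Max Response: 665/615 nm signal ratio set to 100 without ursolic acid or test compound.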 The class given is biochemical. Conditions: RORγ-LBD TR-FRET assay; for TR-FRET Assay Max Response: maximum response. In outline:
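Lysate from SF9 cells expressing His-RORγ-LBD is diluted to about 3 nM final in 50 mM Tris pH 7.0 assay buffer. A biotin-tagged SRC1 LXXLL peptide goes in at 200 nM final, plus ursolic acid at 2 μM final. Test compounds carry 1% DMSO final; signal read by TR-FRET.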

Broadly, the EC50 is the concentration at which the effect is half-maximal. Regarding `C/C(=C\c1ccc2c(c1)N(S(=O)(=O)c1cccc(C(F)(F)F)c1)C[C@H](CCNC(=O)OC(C)(C)C)O2)c1c(F)cccc1Cl` [Example 110, tert-Butyl (S,E)-(2-(6-(2-(2-chloro-6-fluorophenyl)prop-1-en-1-yl)-4-((3-(trifluoromethyl)phenyl)sulfonyl)-3,4-dihydro-2H-benzo[b][1,4]oxazin-2-yl)ethyl)carbamate], on Gal4-RORγ-LBD, the EC50 lay within 500 to 5000 nM and the “Gal4-RORγ Assay Max Response” value is listed as “** (a value in the range of greater than 90 to 150)”. Moreover, at RORγ-LBD, the EC50 is less than 500 nM and the “TR-FRET Assay Max Response” value is “*** (a value in the range of greater than 150 to 200)”.
The corresponding values for `C/C(=C\c1ccc2c(c1)N(S(=O)(=O)c1cccc(C(F)(F)F)c1)C[C@H](CCN)O2)c1c(F)cccc1Cl` [Example 111, (S,E)-2-(6-(2-(2-Chloro-6-fluorophenyl)prop-1-en-1-yl)-4-((3-(trifluoromethyl)phenyl)sulfonyl)-3,4-dihydro-2H-benzo[b][1,4]oxazin-2-yl)ethan-1-amine] are 500 to 5000 nM, “** (a value in the range of greater than 90 to 150)”, less than 500 nM and “*** (a value in the range of greater than 150 to 200)”.
For `CC(=O)NCC[C@H]1CN(S(=O)(=O)c2cccc(C(F)(F)F)c2)c2cc(/C=C(\C)c3c(F)cccc3Cl)ccc2O1` [Example 112, (S,E)-N-(2-(6-(2-(2-Chloro-6-fluorophenyl)prop-1-en-1-yl)-4-((3-(trifluoromethyl)phenyl)sulfonyl)-3,4-dihydro-2H-benzo[b][1,4]oxazin-2-yl)ethyl)acetamide], in that order: less than 500 nM, “** (a value in the range of greater than 90 to 150)”, less than 500 nM and “*** (a value in the range of greater than 150 to 200)”.
As for `C/C(=C\c1ccc2c(c1)N(S(=O)(=O)c1cccc(C(F)(F)F)c1)C[C@H](CCNC(=O)C1CC1)O2)c1c(F)cccc1Cl` [Example 113, (S,E)-N-(2-(6-(2-(2-Chloro-6-fluorophenyl)prop-1-en-1-yl)-4-((3-(trifluoromethyl)phenyl)sulfonyl)-3,4-dihydro-2H-benzo[b][1,4]oxazin-2-yl)ethyl)cyclopropanecarboxamide], at Gal4-RORγ-LBD, the EC50 is less than 500 nM and the “Gal4-RORγ Assay Max Response” value was “** (a value in the range of greater than 90 to 150)”. Further, on RORγ-LBD, the 50% effective concentration (EC50) is less than 500 nM and the “TR-FRET Assay Max Response” value was “*** (a value in the range of greater than 150 to 200)”.
Turning to `C/C(=C\c1ccc2c(c1)N(S(=O)(=O)c1cccc(C(F)(F)F)c1)C[C@H](CCNS(C)(=O)=O)O2)c1c(F)cccc1Cl` [Example 114, (S,E)-N-(2-(6-(2-(2-Chloro-6-fluorophenyl)prop-1-en-1-yl)-4-((3-(trifluoromethyl)phenyl)sulfonyl)-3,4-dihydro-2H-benzo[b][1,4]oxazin-2-yl)ethyl)methanesulfonamide], on Gal4-RORγ-LBD, the EC50 is less than 500 nM and the “Gal4-RORγ Assay Max Response” value was “** (a value in the range of greater than 90 to 150)”. On RORγ-LBD, the 50% effective concentration (EC50) was less than 500 nM and the “TR-FRET Assay Max Response” value is “*** (a value in the range of greater than 150 to 200)”.
As to `C/C(=C\c1ccc2c(c1)N(S(=O)(=O)c1cccc(C(F)(F)F)c1)C[C@H](CCNC(=O)C(C)(C)O)O2)c1c(F)cccc1Cl` [Example 115, (S,E)-N-(2-(6-(2-(2-Chloro-6-fluorophenyl)prop-1-en-1-yl)-4-((3-(trifluoromethyl)phenyl)sulfonyl)-3,4-dihydro-2H-benzo[b][1,4]oxazin-2-yl)ethyl)-2-hydroxy-2-methylpropanamide], at Gal4-RORγ-LBD, the concentration giving a half-maximal response (EC50) was less than 500 nM and the “Gal4-RORγ Assay Max Response” value is given as “* (a value in the range of 30 to 90)”. At RORγ-LBD, the EC50 is less than 500 nM and the “TR-FRET Assay Max Response” value is “*** (a value in the range of greater than 150 to 200)”.
`C/C(=C\c1ccc2c(c1)N(S(=O)(=O)c1cccc(C(F)(F)F)c1)C[C@H](CCNS(=O)(=O)C1CC1)O2)c1c(F)cccc1Cl` [Example 116A, (S,E)-N-(2-(6-(2-(2-chloro-6-fluorophenyl)prop-1-en-1-yl)-4-((3-(trifluoro-methyl)phenyl)-sulfonyl)-3,4-dihydro-2H-benzo[b][1,4]oxazin-2-yl)ethyl)cyclopropane-sulfonamide]: on Gal4-RORγ-LBD, the EC50 was less than 500 nM and the “Gal4-RORγ Assay Max Response” value is “** (a value in the range of greater than 90 to 150)”. Further, at RORγ-LBD, the concentration for a half-maximal effect (EC50) is less than 500 nM and the “TR-FRET Assay Max Response” value is “*** (a value in the range of greater than 150 to 200)”.
For the compound `COc1cc(S(=O)(=O)N2C[C@H](CCNC(C)=O)Oc3ccc(/C=C(\C)c4c(F)cccc4Cl)cc32)ccc1F` [Example 116B, (S,E)-N-(2-(6-(2-(2-chloro-6-fluorophenyl)prop-1-en-1-yl)-4-((4-fluoro-3-methoxyphenyl)-sulfonyl)-3,4-dihydro-2H-benzo[b][1,4]oxazin-2-yl)ethyl)acetamide], on Gal4-RORγ-LBD, the EC50 was less than 500 nM and the “Gal4-RORγ Assay Max Response” value is recorded as “* (a value in the range of 30 to 90)”. At RORγ-LBD, the concentration giving a half-maximal response (EC50) is less than 500 nM and the “TR-FRET Assay Max Response” value is “*** (a value in the range of greater than 150 to 200)”.
For `CCOC(=O)C(=O)NCC[C@H]1CN(S(=O)(=O)c2ccc(F)c(OC)c2)c2cc(/C=C(\C)c3c(F)cccc3Cl)ccc2O1` [Example 116C, ethyl (S,E)-2-((2-(6-(2-(2-chloro-6-fluorophenyl)prop-1-en-1-yl)-4-((4-fluoro-3-methoxyphenyl)sulfonyl)-3,4-dihydro-2H-benzo[b][1,4]oxazin-2-yl)ethyl)amino)-2-oxoacetate], at Gal4-RORγ-LBD, the EC50 is 500 to 5000 nM and the “Gal4-RORγ Assay Max Response” value was “** (a value in the range of greater than 90 to 150)”. At RORγ-LBD, the 50% effective concentration (EC50) is less than 500 nM and the “TR-FRET Assay Max Response” value was “*** (a value in the range of greater than 150 to 200)”.
For the compound `COc1cc(S(=O)(=O)N2C[C@H](CCNC(=O)[C@H](C)O)Oc3ccc(/C=C(\C)c4c(F)cccc4Cl)cc32)ccc1F` [Example 116D, (S)-N-(2-((S)-6-((E)-2-(2-chloro-6-fluorophenyl)prop-1-en-1-yl)-4-((4-fluoro-3-methoxyphenyl)sulfonyl)-3,4-dihydro-2H-benzo[b][1,4]oxazin-2-yl)ethyl)-2-hydroxypropanamide], on Gal4-RORγ-LBD, the EC50 was less than 500 nM and the “Gal4-RORγ Assay Max Response” value is reported as “** (a value in the range of greater than 90 to 150)”. Also, on RORγ-LBD, the EC50 is less than 500 nM and the “TR-FRET Assay Max Response” value is reported as “*** (a value in the range of greater than 150 to 200)”.
Turning to `CCn1cc(S(=O)(=O)N2C[C@H](CCNC(C)=O)Oc3ccc(/C=C(\C)c4c(F)cccc4Cl)cc32)c(Cl)n1` [Example 116E, (S,E)-N-(2-(4-((3-chloro-1-ethyl-1H-pyrazol-4-yl)sulfonyl)-6-(2-(2-chloro-6-fluorophenyl)-prop-1-en-1-yl)-3,4-dihydro-2H-benzo[b][1,4]oxazin-2-yl)ethyl)acetamide], at Gal4-RORγ-LBD, the EC50 is less than 500 nM and the “Gal4-RORγ Assay Max Response” value is given as “** (a value in the range of greater than 90 to 150)”. At RORγ-LBD, the EC50 was less than 500 nM and the “TR-FRET Assay Max Response” value is “*** (a value in the range of greater than 150 to 200)”.
`C/C(=C\c1ccc2c(c1)N(S(=O)(=O)c1cccc(C(F)(F)F)c1)C[C@H](NC(=O)C(C)(C)O)C2)c1c(F)cccc1Cl` [Example 116F, (R,E)-N-(7-(2-(2-chloro-6-fluorophenyl)prop-1-en-1-yl)-1-((3-(trifluoromethyl)-phenyl)sulfonyl)-1,2,3,4-tetrahydroquinolin-3-yl)-2-hydroxy-2-methylpropanamide]: on Gal4-RORγ-LBD, the half-maximal effective concentration (EC50) was 500 to 5000 nM and the “Gal4-RORγ Assay Max Response” value was “* (a value in the range of 30 to 90)”. Further, at RORγ-LBD, the EC50 is less than 500 nM and the “TR-FRET Assay Max Response” value is listed as “*** (a value in the range of greater than 150 to 200)”.
For `C/C(=C\c1ccc2c(c1)N(S(=O)(=O)c1cccc(C(F)(F)F)c1)C[C@@H](NC(=O)C(C)(C)O)C2)c1c(F)cccc1Cl` [Example 116G, (S,E)-N-(7-(2-(2-chloro-6-fluorophenyl)prop-1-en-1-yl)-1-((3-(trifluoromethyl)-phenyl)sulfonyl)-1,2,3,4-tetrahydroquinolin-3-yl)-2-hydroxy-2-methylpropanamide], in that order: less than 500 nM, “* (a value in the range of 30 to 90)”, less than 500 nM and “*** (a value in the range of greater than 150 to 200)”.
For `C/C(=C\c1ccc2c(c1)N(S(=O)(=O)c1cccc(C(F)(F)F)c1)C[C@H](NS(C)(=O)=O)C2)c1c(F)cccc1Cl` [Example 116H, (R,E)-N-(7-(2-(2-chloro-6-fluorophenyl)prop-1-en-1-yl)-1-((3-(trifluoromethyl)phenyl)-sulfonyl)-1,2,3,4-tetra-hydroquinolin-3-yl)methanesulfonamide], in that order: less than 500 nM, “** (a value in the range of greater than 90 to 150)”, less than 500 nM and “*** (a value in the range of greater than 150 to 200)”.
